No end group written: not given here. YFP = yellow fluorescent protein
Tests used:
AqTNKS ART = target: T1, AqTNKS ART (Amphimedon queenslandica, UniProt A0AAN0IWK4); experiment: differential scanning fluorimetry (SYPRO orange); format: binding; conditions: […] protein, […] compound, pH […]
T1 construct: catalytic ART domain, Thr968-Thr1181; MBP tag removed by TEV; E. coli BL21(DE3), codon-optimized

TNKS1 SAM-ART = target: T2, TNKS1 SAM-ART (Homo sapiens, UniProt O95271); experiment: auto-PARylation, Western blot; format: biochemical; conditions: […] protein; biotin-NAD+/NAD+ ([…]), […] total; […] h, room temperature; labelled compound as tracer
T2 construct: gene TNKS; SAM and ART domains; N-terminal MBP tag kept; E. coli BL21(DE3)
T2 sequence (O95271 1030-1327 limits assumed): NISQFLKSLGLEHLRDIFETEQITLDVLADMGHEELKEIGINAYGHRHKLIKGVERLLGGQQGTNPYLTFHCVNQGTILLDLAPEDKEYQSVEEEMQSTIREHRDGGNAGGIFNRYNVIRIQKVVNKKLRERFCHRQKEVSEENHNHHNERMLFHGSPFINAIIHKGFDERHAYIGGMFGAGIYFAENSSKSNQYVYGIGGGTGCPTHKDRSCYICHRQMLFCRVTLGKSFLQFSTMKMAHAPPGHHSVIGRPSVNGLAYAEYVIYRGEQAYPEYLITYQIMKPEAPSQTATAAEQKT

AqTNKS SAM-ART = target: T3, AqTNKS SAM-ART (Amphimedon queenslandica, UniProt A0AAN0IWK4); experiment: auto-PARylation, Western blot; format: biochemical; conditions: […] protein; biotin-NAD+/NAD+ ([…]), […] total; […] h, room temperature; labelled compound as tracer
T3 construct: SAM and ART domains, Pro889-Thr1181; N-terminal MBP tag kept; E. coli BL21(DE3); forms multimers
T3 sequence (A0AAN0IWK4 entry or part of it): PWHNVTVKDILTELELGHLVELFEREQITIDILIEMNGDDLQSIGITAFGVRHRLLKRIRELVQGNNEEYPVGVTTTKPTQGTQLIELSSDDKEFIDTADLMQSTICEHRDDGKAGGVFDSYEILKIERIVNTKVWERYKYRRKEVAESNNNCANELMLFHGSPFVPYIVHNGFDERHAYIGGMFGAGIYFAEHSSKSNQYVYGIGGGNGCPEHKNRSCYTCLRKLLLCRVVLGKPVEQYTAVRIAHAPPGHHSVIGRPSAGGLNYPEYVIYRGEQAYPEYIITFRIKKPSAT

TNKS1 ART = target: T4, TNKS1 ART (Homo sapiens, UniProt O95271); experiment: differential scanning fluorimetry (SYPRO orange); format: binding; conditions: […] protein, […] compound, pH […]; adenosine site
T4 construct: gene TNKS; catalytic ART domain; E. coli BL21(DE3)
T4 sequence (O95271 1105-1327 limits assumed): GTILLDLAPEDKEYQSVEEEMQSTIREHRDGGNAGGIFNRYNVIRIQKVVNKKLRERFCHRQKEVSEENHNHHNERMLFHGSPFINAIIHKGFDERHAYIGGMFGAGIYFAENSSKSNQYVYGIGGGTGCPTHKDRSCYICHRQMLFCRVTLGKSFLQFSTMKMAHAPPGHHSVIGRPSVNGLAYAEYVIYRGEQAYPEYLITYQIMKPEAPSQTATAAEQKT

CFP-ARC5 (AqTNKS) = target: T5, CFP-ARC5 (AqTNKS) (Amphimedon queenslandica); experiment: FRET
T5 chain: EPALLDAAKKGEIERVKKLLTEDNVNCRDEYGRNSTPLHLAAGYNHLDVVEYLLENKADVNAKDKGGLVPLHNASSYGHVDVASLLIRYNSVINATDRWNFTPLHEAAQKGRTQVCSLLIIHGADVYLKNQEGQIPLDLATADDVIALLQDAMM

T1 sequence (A0AAN0IWK4 entry or part of it): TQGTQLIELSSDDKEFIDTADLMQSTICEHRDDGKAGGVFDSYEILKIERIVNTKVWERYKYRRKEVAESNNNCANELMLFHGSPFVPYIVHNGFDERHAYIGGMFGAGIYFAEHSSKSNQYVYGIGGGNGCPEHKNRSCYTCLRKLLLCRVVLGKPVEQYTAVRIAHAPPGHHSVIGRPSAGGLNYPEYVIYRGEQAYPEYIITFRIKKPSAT

`COc1ccc(C(=O)C2CCN(CC(=O)N(Cc3nc4c(c(=O)[nH]3)COCC4)CC3CC3)CC2)cc1` [NVP-TNKS656] was tested, and the Tm shift (AqTNKS ART; dual site) was “For all inhibitors, the melting temperatures for both TNKS1 and AqTNKS were similarly increased”.

For `O=c1[nH]nc2c3c(cccc13)NC(CN1Cc3ccccc3C1)=N2` [E7449], the Tm shift (AqTNKS ART; nicotinamide site) was “For all inhibitors, the melting temperatures for both TNKS1 and AqTNKS were similarly increased”.

With `NC(=O)c1ccc[n+]([C@@H]2O[C@H](COP(=O)(O)OP(=O)(O)OC[C@H]3O[C@@H](n4cnc5c(N)ncnc54)[C@H](O)[C@@H]3O)[C@@H](O)[C@H]2O)c1` [NAD^+] the “auto-PARylation, Western blot” value (TNKS1 SAM-ART) was “PARylation of the proteins was clearly detected for the SAM-ART constructs of AqTNKS and TNKS1” and the “auto-PARylation, Western blot” value (AqTNKS SAM-ART) was “PARylation of the proteins was clearly detected for the SAM-ART constructs of AqTNKS and TNKS1”.

For `Cc1cc(N2C[C@@H](C)N[C@@H](C)C2)ncc1-c1ccc(-c2nc3c(ccn3C)c(=O)[nH]2)cc1` [AZ6102], the Tm shift (AqTNKS ART; nicotinamide site, compound named in Results but not in the Methods list) was “For all inhibitors, the melting temperatures for both TNKS1 and AqTNKS were similarly increased”.

In the case of `CS(=O)(=O)c1ccc(-c2nnc(/C=C/c3nnc(-c4ccc(C#N)cc4)o3)n2-c2ccccc2Cl)nc1` [G007-LK], the Tm shift (TNKS1 ART) is reported as “For all inhibitors, the melting temperatures for both TNKS1 and AqTNKS were similarly increased” and the Tm shift (AqTNKS ART; adenosine site) is reported as “For all inhibitors, the melting temperatures for both TNKS1 and AqTNKS were similarly increased”.

For `O=c1[nH]c(-c2ccc(C(F)(F)F)cc2)nc2c1CSCC2` [XAV939], the Tm shift (AqTNKS ART; nicotinamide site) was “For all inhibitors, the melting temperatures for both TNKS1 and AqTNKS were similarly increased”.

B1: YFP-REAGDGEE (peptide)
chain: {YFP}-REAGDGEE
B1 was tested, and the Kd (CFP-ARC5 (AqTNKS)) was 98.5 nM.

From article PMC9688111, “An Evolutionary Perspective on the Origin, Conservation and Binding Partner Acquisition of Tankyrases” (Biomolecules, 2022)
